Experimental data published in US20220315554A1, “COMPOUNDS COMPRISING A […] LIGAND AND USE THEREOF” (priority 2019, published 2022).
Numbered stars: 1 amine (or outer) side, 2 acyl side, 3 side chain; on linkers, the order of the positions; unused ones are H or OH. Bridge positions count the residues as written; N and C are the ends. Square brackets hold non-standard residues; d marks the D form. Peptide text beside a SMILES is read from it. mXylylene = c1cc(C[*:1])cc(C[*:2])c1; 3Pal = N[C@@H](Cc1cccnc1)C(=O)O; 2Thi = N[C@@H](Cc1cccs1)C(=O)O

How the values were obtained:
[1] = biological target: T1, FAP-expressing human WI-38 fibroblasts (Homo sapiens, UniProt Q12884); assay: Competitive FACS binding assay; details: pIC50 Category (FACS), competition with 3 nM Cy5-labeled compound, WI-38 fibroblasts, 4° C., 1 hour
T1 construct: FAP-expressing human WI-38 fibroblasts (ECACC) were cultured in EMEM; host or cells: WI-38 human fibroblasts
T1 sequence (Q12884 1-760): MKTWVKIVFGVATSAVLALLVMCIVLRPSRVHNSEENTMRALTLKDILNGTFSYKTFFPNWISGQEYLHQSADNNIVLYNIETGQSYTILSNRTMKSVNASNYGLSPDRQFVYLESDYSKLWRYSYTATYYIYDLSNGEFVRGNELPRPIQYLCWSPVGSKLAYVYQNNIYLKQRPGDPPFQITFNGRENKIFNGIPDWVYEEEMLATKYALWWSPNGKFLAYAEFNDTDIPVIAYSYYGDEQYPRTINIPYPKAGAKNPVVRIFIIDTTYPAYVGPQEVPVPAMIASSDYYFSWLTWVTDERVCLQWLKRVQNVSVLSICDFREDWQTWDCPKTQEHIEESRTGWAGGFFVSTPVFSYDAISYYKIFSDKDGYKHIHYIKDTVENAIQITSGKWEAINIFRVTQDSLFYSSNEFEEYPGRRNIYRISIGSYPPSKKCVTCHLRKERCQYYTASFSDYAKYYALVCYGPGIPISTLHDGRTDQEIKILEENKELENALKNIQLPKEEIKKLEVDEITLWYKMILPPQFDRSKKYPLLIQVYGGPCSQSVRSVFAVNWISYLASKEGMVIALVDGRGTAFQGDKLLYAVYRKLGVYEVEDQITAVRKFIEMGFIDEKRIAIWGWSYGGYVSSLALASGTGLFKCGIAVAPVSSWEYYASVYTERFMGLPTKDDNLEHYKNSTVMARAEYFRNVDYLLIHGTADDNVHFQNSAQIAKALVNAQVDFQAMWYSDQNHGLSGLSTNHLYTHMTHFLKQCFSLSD
Procedure: Cells were analyzed in an Attune NxT flow cytometer. […]

[2] = biological target: T2, Human recombinant FAP (Homo sapiens, UniProt Q12884); assay: FRET-based FAP protease activity assay; format: biochemical; set-up: purchased R&D systems 3715-SE; details: pIC50 Category (Activity), recombinant human FAP, FRET substrate, 37° C.
T2 sequence (Q12884 1-760): T1 sequence (Q12884 1-760)

Compound	IC50 [1] [nM]	IC50 [2] [nM]
CSCC[C@H](NC(C)=O)C(=O)N[C@H]1CSCc2cccc(c2)CSC[C@@H](C(=O)N[C@@H](CC(=O)O)C(=O)N[C@@H](Cc2c[nH]cn2)C(=O)N[C@@H](Cc2cccnc2)C(=O)N[C@@H](CCCNC(=N)N)C(=O)N[C@@H](CC(=O)O)C(N)=O)NC(=O)[C@H](Cc2ccccc2)NC(=O)[C@H](CCC(=O)O)NC(=O)[C@H]([C@@H](C)O)NC(=O)[C@@H]2CCCN2C(=O)[C@@H]2CCCN2C1=O [3BP-3192, Ac-Met-[Cys(3MeBn)-Pro-Pro-Thr-Glu-Phe-Cys]-Asp-His-Mpa-Arg-Asp-NH2] (Ac-MCPPTEFCDH[3Pal]RD-NH2; linker 2-8 via mXylylene)	< 10	< 10
CSCC[C@H](NC(C)=O)C(=O)N[C@H]1CSCc2cccc(c2)CSC[C@@H](C(=O)N[C@@H](CC(=O)O)C(=O)N[C@@H](Cc2c[nH]cn2)C(=O)N[C@@H](Cc2cccs2)C(=O)N[C@@H](CCCNC(=N)N)C(=O)N[C@@H](CC(=O)O)C(N)=O)NC(=O)[C@H](Cc2ccccc2)NC(=O)[C@H](CCC(=O)O)NC(=O)[C@H]([C@@H](C)O)NC(=O)[C@@H]2CCCN2C(=O)[C@@H]2CCCN2C1=O [3BP-3193, Ac-Met-[Cys(3MeBn)-Pro-Pro-Thr-Glu-Thi-Cys]-Asp-His-Phe-Arg-Asp-NH2] (Ac-MCPPTEFCDH[2Thi]RD-NH2; linker 2-8 via mXylylene)	< 10	< 10
CSCC[C@H](NC(C)=O)C(=O)N[C@H]1CSCc2cccc(c2)CSC[C@@H](C(=O)N[C@@H](C)C(=O)N[C@@H](Cc2c[nH]cn2)C(=O)N[C@@H](Cc2ccccc2)C(=O)N[C@@H](CCCNC(=N)N)C(=O)N[C@@H](CC(=O)O)C(N)=O)NC(=O)[C@H](Cc2ccccc2)NC(=O)[C@H](CCC(=O)O)NC(=O)[C@H]([C@@H](C)O)NC(=O)[C@@H]2CCCN2C(=O)[C@@H]2CCCN2C1=O [3BP-3194, Ac-Met-[Cys(3MeBn)-Pro-Pro-Thr-Glu-Phe-Cys]-Ala-His-Phe-Arg-Asp-NH2] (Ac-MCPPTEFCAHFRD-NH2; linker 2-8 via mXylylene)	10 to 79.4	10 to 79.4
CSCC[C@H](NC(C)=O)C(=O)N[C@H]1CSCc2cccc(c2)CSC[C@@H](C(=O)N[C@@H](CC(=O)O)C(=O)N[C@@H](C)C(=O)N[C@@H](Cc2ccccc2)C(=O)N[C@@H](CCCNC(=N)N)C(=O)N[C@@H](CC(=O)O)C(N)=O)NC(=O)[C@H](Cc2ccccc2)NC(=O)[C@H](CCC(=O)O)NC(=O)[C@H]([C@@H](C)O)NC(=O)[C@@H]2CCCN2C(=O)[C@@H]2CCCN2C1=O [3BP-3195, Ac-Met-[Cys(3MeBn)-Pro-Pro-Thr-Glu-Phe-Cys]-Asp-Ala-Phe-Arg-Asp-NH2] (Ac-MCPPTEFCDAFRD-NH2; linker 2-8 via mXylylene)	< 10	10 to 79.4

The next lines start with the values.

IC50 [1] [nM]	IC50 [2] [nM]	Compound
10 to 79.4	10 to 79.4	CSCC[C@H](NC(C)=O)C(=O)N[C@H]1CSCc2cccc(c2)CSC[C@H](C(=O)N[C@@H](CC(=O)O)C(=O)N[C@@H](Cc2c[nH]cn2)C(=O)N[C@@H](Cc2ccccc2)C(=O)N[C@@H](CCCNC(=N)N)C(=O)N[C@@H](CC(=O)O)C(N)=O)NC(=O)[C@H](Cc2ccccc2)NC(=O)[C@H](CCC(=O)O)NC(=O)[C@H]([C@@H](C)O)NC(=O)[C@@H]2CCCN2C(=O)[C@@H]2CCCN2C1=O [3BP-3182, Ac-Met-[Cys(3MeBn)-Pro-Pro-Thr-Glu-Phe-cys]-Asp-His-Phe-Arg-Asp-NH2] (Ac-MCPPTEF[dC]DHFRD-NH2; linker 2-8 via mXylylene)
100 to 794	100 to 794	CSCC[C@H](NC(C)=O)C(=O)N[C@H]1CSCc2cccc(c2)CSC[C@@H](C(=O)N[C@@H](CC(=O)O)C(=O)N[C@@H](Cc2c[nH]cn2)C(=O)N[C@@H](Cc2ccccc2)C(=O)N[C@@H](C)C(=O)N[C@@H](CC(=O)O)C(N)=O)NC(=O)[C@H](Cc2ccccc2)NC(=O)[C@H](CCC(=O)O)NC(=O)[C@H]([C@@H](C)O)NC(=O)[C@@H]2CCCN2C(=O)[C@@H]2CCCN2C1=O [3BP-3197, Ac-Met-[Cys(3MeBn)-Pro-Pro-Thr-Glu-Phe-Cys]-Asp-His-Phe-Ala-Asp-NH2] (Ac-MCPPTEFCDHFAD-NH2; linker 2-8 via mXylylene)
